Test results reported in PubChem BioAssay AID1919014 (Molecular Pharmacology Branch, DTP, NCI, 2023).
Each block holds one compound with its values, some of them ahead of it.

Tested on: NCI-H1341 complex spheroids, percent test/control
Assay: Anticancer human tumor NCI-H1341 cell line growth inhibition [AhR];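 further: spheroids exposed to agents for seven days before readout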
Details: for IC50: curve of first compound; for viability, T/C: stronger effect = lower value
How it was run: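 Agents were dosed in half-log steps down from roughly clinical Cmax, or from 10 microM where Cmax was unknown, alone and with AhR antagonists. Read-out: percent test/control growth of tumor spheroids containing HUVEC and MSC stromal cells.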

[1] = second compound 0.1 µM, first compound 0.00949 µM
[2] = second compound 0.1 µM, first compound 0.03 µM
[3] = second compound 0.1 µM, first compound 0.0949 µM
[4] = second compound 0.1 µM, first compound 0.3 µM
[5] = second compound 0.316 µM, first compound 0.00949 µM
[6] = second compound 0.316 µM, first compound 0.03 µM
[7] = second compound 0.316 µM, first compound 0.0949 µM
[8] = second compound 0.316 µM, first compound 0.3 µM
[9] = second compound 1 µM, first compound 0.00949 µM
[10] = second compound 1 µM, first compound 0.03 µM
[11] = second compound 1 µM, first compound 0.0949 µM
[12] = second compound 1 µM, first compound 0.3 µM
[13] = second compound 3.16 µM, first compound 0.00949 µM
[14] = second compound 3.16 µM, first compound 0.03 µM
[15] = second compound 3.16 µM, first compound 0.0949 µM
[16] = second compound 3.16 µM, first compound 0.3 µM
[17] = second compound 10 µM, first compound 0.00949 µM
[18] = second compound 10 µM, first compound 0.03 µM
[19] = second compound 10 µM, first compound 0.0949 µM
[20] = second compound 10 µM, first compound 0.3 µM

IC50 (second compound 0.1 µM): 1080 nM
IC50 (second compound 0.316 µM): 592 nM
IC50 (second compound 1 µM): 687 nM
IC50 (second compound 3.16 µM): 365 nM
IC50 (second compound 10 µM): < 31.6 nM
SMILES: COc1ccc([C@@H](O)c2cc(-c3ncnc4cc(N5CCOCC5)ccc34)c(F)cc2Cl)nn1 + Cc1cncc(-c2nc(NCCc3c[nH]c4ccccc34)c3ncn(C(C)C)c3n2)c1
viability, T/C (second compound 0.1 µM, first compound 0.0316 µM): 83.7%
viability, T/C (second compound 0.1 µM, first compound 0.1 µM): 75.9%
viability, T/C (second compound 0.1 µM, first compound 0.316 µM): 75.9%
viability, T/C (second compound 0.1 µM, first compound 1 µM): 49.9%
viability, T/C (second compound 0.1 µM, first compound 3.16 µM): 24.6%
viability, T/C (second compound 0.1 µM, first compound 10 µM): 5.31%
viability, T/C (second compound 0.316 µM, first compound 0.0316 µM): 76.3%
viability, T/C (second compound 0.316 µM, first compound 0.1 µM): 69.3%
viability, T/C (second compound 0.316 µM, first compound 0.316 µM): 59.9%
viability, T/C (second compound 0.316 µM, first compound 1 µM): 42.6%
viability, T/C (second compound 0.316 µM, first compound 3.16 µM): 20.3%
viability, T/C (second compound 0.316 µM, first compound 10 µM): 5.39%
viability, T/C (second compound 1 µM, first compound 0.0316 µM): 68%
viability, T/C (second compound 1 µM, first compound 0.1 µM): 62.3%
viability, T/C (second compound 1 µM, first compound 0.316 µM): 61.8%
viability, T/C (second compound 1 µM, first compound 1 µM): 44.6%
viability, T/C (second compound 1 µM, first compound 3.16 µM): 17.4%
viability, T/C (second compound 1 µM, first compound 10 µM): 5.3%
viability, T/C (second compound 3.16 µM, first compound 0.0316 µM): 71.8%
viability, T/C (second compound 3.16 µM, first compound 0.1 µM): 67.6%
viability, T/C (second compound 3.16 µM, first compound 0.316 µM): 46%
viability, T/C (second compound 3.16 µM, first compound 1 µM): 42.1%
viability, T/C (second compound 3.16 µM, first compound 3.16 µM): 16.2%
viability, T/C (second compound 3.16 µM, first compound 10 µM): 4.69%
viability, T/C (second compound 10 µM, first compound 0.0316 µM): 18.4%
viability, T/C (second compound 10 µM, first compound 0.1 µM): 16.3%
viability, T/C (second compound 10 µM, first compound 0.316 µM): 13.7%
viability, T/C (second compound 10 µM, first compound 1 µM): 7.45%
viability, T/C (second compound 10 µM, first compound 3.16 µM): 5.7%
viability, T/C (second compound 10 µM, first compound 10 µM): 3.93%

IC50 (second compound 0.1 µM): > 300 nM
IC50 (second compound 0.316 µM): 282 nM
IC50 (second compound 1 µM): > 300 nM
IC50 (second compound 3.16 µM): > 300 nM
IC50 (second compound 10 µM): < 0.949 nM
SMILES: Nc1ncn(C2CC(O)C(CO)S2)c(=O)n1 (stereo not given) + Cc1cncc(-c2nc(NCCc3c[nH]c4ccccc34)c3ncn(C(C)C)c3n2)c1
viability, T/C (second compound 0.1 µM, first compound 0.000949 µM): 102%
viability, T/C (second compound 0.1 µM, first compound 0.003 µM): 82.9%
viability, T/C [1]: 91.5%
viability, T/C [2]: 88.3%
viability, T/C [3]: 67.7%
viability, T/C [4]: 50.2%
viability, T/C (second compound 0.316 µM, first compound 0.000949 µM): 84.9%
viability, T/C (second compound 0.316 µM, first compound 0.003 µM): 89.5%
viability, T/C [5]: 79.6%
viability, T/C [6]: 73.8%
viability, T/C [7]: 71.8%
viability, T/C [8]: 47.8%
viability, T/C (second compound 1 µM, first compound 0.000949 µM): 69.8%
viability, T/C (second compound 1 µM, first compound 0.003 µM): 87.3%
viability, T/C [9]: 80.7%
viability, T/C [10]: 77.2%
viability, T/C [11]: 67.5%
viability, T/C [12]: 58%
viability, T/C (second compound 3.16 µM, first compound 0.000949 µM): 93.7%
viability, T/C (second compound 3.16 µM, first compound 0.003 µM): 97.9%
viability, T/C [13]: 86.9%
viability, T/C [14]: 84.7%
viability, T/C [15]: 82.3%
viability, T/C [16]: 63.8%
viability, T/C (second compound 10 µM, first compound 0.000949 µM): 45%
viability, T/C (second compound 10 µM, first compound 0.003 µM): 44.2%
viability, T/C [17]: 42.1%
viability, T/C [18]: 35.8%
viability, T/C [19]: 33.1%
viability, T/C [20]: 26%

IC50 (second compound 0.1 µM): 98.1 nM
IC50 (second compound 0.316 µM): 56.8 nM
IC50 (second compound 1 µM): 81.1 nM
IC50 (second compound 3.16 µM): 44.4 nM
IC50 (second compound 10 µM): < 9.49 nM
SMILES: O=C(C=Cn1cnc(-c2cc(C(F)(F)F)cc(C(F)(F)F)c2)n1)NNc1cnccn1 + Cc1cncc(-c2nc(NCCc3c[nH]c4ccccc34)c3ncn(C(C)C)c3n2)c1
viability, T/C [1]: 80.6%
viability, T/C [2]: 77%
viability, T/C [3]: 51.1%
viability, T/C [4]: 14.5%
viability, T/C (second compound 0.1 µM, first compound 0.949 µM): 7.39%
viability, T/C (second compound 0.1 µM, first compound 3 µM): 6.28%
viability, T/C [5]: 66.5%
viability, T/C [6]: 65.7%
viability, T/C [7]: 38%
viability, T/C [8]: 13.4%
viability, T/C (second compound 0.316 µM, first compound 0.949 µM): 7.92%
viability, T/C (second compound 0.316 µM, first compound 3 µM): 4.63%
viability, T/C [9]: 76.8%
viability, T/C [10]: 78.5%
viability, T/C [11]: 45.1%
viability, T/C [12]: 12.7%
viability, T/C (second compound 1 µM, first compound 0.949 µM): 7.39%
viability, T/C (second compound 1 µM, first compound 3 µM): 4.92%
viability, T/C [13]: 70.2%
viability, T/C [14]: 60.4%
viability, T/C [15]: 30.8%
viability, T/C [16]: 13.6%
viability, T/C (second compound 3.16 µM, first compound 0.949 µM): 7.86%
viability, T/C (second compound 3.16 µM, first compound 3 µM): 4.46%
viability, T/C [17]: 35.3%
viability, T/C [18]: 34.8%
viability, T/C [19]: 17.4%
viability, T/C [20]: 9.23%
viability, T/C (second compound 10 µM, first compound 0.949 µM): 5.77%
viability, T/C (second compound 10 µM, first compound 3 µM): 3.55%
